In brackets after ≈: the same amount, converted by molar mass.
How the values were obtained:
[1] = tested on: S. pneumoniae; experiment: MIC, broth micro-dilution (CLSI); type: cell-based, Streptococcus pneumoniae
[2] = tested on: Enterococcus faecalis ATCC 29212; experiment: MIC, broth micro-dilution (CLSI), control strain; type: cell-based; settings: ATCC29212, absence of FBS
Procedure: MICs for NCL812 and its analogs (serial two-fold dilutions commencing at 128 μg/ml) were determined (in duplicate) in round bottom 96-well microtitre trays (Sarstedt 82.1582.001), using the broth micro-dilution method recommended by the Clinical and Laboratory Standards Institute (CLSI). […] MIC50, MIC90 and MIC range for NCL812, NCL195 and NCL219 were calculated against each S. pneumoniae, S. aureus or VRE isolate. To assess the potential activity of NCL195 against Gram-negative bacteria, MICs against Acinetobacter spp, E. coli, K. pneumoniae, P. aeruginosa, Proteus spp and Neisseria meningitidis were performed in the presence or absence of 0.08 mM-20 mM EDTA in a standard checkerboard assay.

[3] = tested on: S. aureus Xen29; experiment: Time-dependent killing assay; type: cell-based, Staphylococcus aureus
Procedure: Time kill assays were performed (in duplicate) essentially as described previously with slight modifications. Briefly, a few colonies of luminescent S. pneumoniae strain D39LUX or luminescent S. aureus ATCC 12600 (Xen29) from an overnight HBA were emulsified in normal saline and adjusted to A600 nm = 0.10 (equivalent to approx. 5 × 10^7 c.f.u. per ml) and the bacterial suspension further diluted 1:20 in saline. […] The compounds were serially diluted in 100% DMSO at 100× the final desired concentration and 100 μl of appropriate concentrations added to each 10 ml preparation. Duplicate cultures were incubated at 37°C (+ 5% CO2 for S. pneumoniae D39), with samples withdrawn at 0, 0.5, 1, 2, 4, 6, 8 and 24 h, serially diluted 10-fold and plated on HBA overnight at 37°C (+ 5% CO2 for S. pneumoniae D39) for bacterial enumeration.

[4] = Streptococcus pneumoniae, S1 Table isolates, 5% FBS

CC1(C)S[C@@H]2[C@H](NC(=O)[C@H](N)c3ccccc3)C(=O)N2[C@H]1C(=O)O [Ampicillin]
MIC range ([1]; S1 Table isolates, 5% FBS + 3% washed RBC): 0.06 to 1 µg/mL
MIC90 ([1]; Streptococcus pneumoniae, 21 isolates): 0.5 µg/mL (≈ 1.43 µM)
MIC ([1]; Streptococcus pneumoniae, A66.1 (serotype 3), 5% FBS): 0.125 µg/mL (≈ 0.358 µM)
MIC ([1]; Streptococcus pneumoniae, ATCC6303, ATCC 6303 (serotype 3), 5% FBS + 3% washed RBC): 0.125 µg/mL
MIC ([1]; Streptococcus pneumoniae, D39/D39LUX (serotype 2), 5% FBS): 0.125 µg/mL (≈ 0.358 µM)
MIC ([1]; Streptococcus pneumoniae, EF3030 (serotype 19F), 5% FBS): 0.5 µg/mL (≈ 1.43 µM)
MIC ([1]; Streptococcus pneumoniae, L82016 (serotype 6B), 5% FBS): 0.06 µg/mL (≈ 0.172 µM)
MIC ([1]; Streptococcus pneumoniae, P9 (serotype 6A), 5% FBS): 0.06 µg/mL (≈ 0.172 µM)
MIC ([1]; Streptococcus pneumoniae, P21 (serotype 3), 5% FBS): 0.06 µg/mL (≈ 0.172 µM)
MIC50 [1, 4]: 0.125 µg/mL (≈ 0.358 µM)
MIC90 [1, 4]: 0.5 µg/mL (≈ 1.43 µM)
MIC ([1]; Streptococcus pneumoniae, TIGR4 (serotype 4), 5% FBS): 0.125 µg/mL (≈ 0.358 µM)
MIC ([1]; Streptococcus pneumoniae, WCH16 (serotype 6A), 5% FBS): 1 µg/mL (≈ 2.86 µM)
MIC ([1]; Streptococcus pneumoniae, WCH43 (serotype 4), 5% FBS): 0.125 µg/mL (≈ 0.358 µM)
MIC ([1]; Streptococcus pneumoniae, WCH46 (serotype 4), 5% FBS): 0.125 µg/mL (≈ 0.358 µM)
MIC ([1]; Streptococcus pneumoniae, WCH57 (serotype 8), 5% FBS): 0.5 µg/mL (≈ 1.43 µM)
MIC ([1]; Streptococcus pneumoniae, WCH77 (serotype 5), 5% FBS): 0.5 µg/mL (≈ 1.43 µM)
MIC ([1]; Streptococcus pneumoniae, WCH86 (serotype 4), 5% FBS): 0.06 µg/mL (≈ 0.172 µM)
MIC ([1]; Streptococcus pneumoniae, WCH89 (serotype 7), 5% FBS): 0.125 µg/mL (≈ 0.358 µM)
MIC ([1]; Streptococcus pneumoniae, WCH92 (serotype 4), 5% FBS): 0.5 µg/mL (≈ 1.43 µM)
MIC ([1]; Streptococcus pneumoniae, WCH137 (serotype 6A), 5% FBS): 0.06 µg/mL (≈ 0.172 µM)
MIC ([1]; Streptococcus pneumoniae, WCH158 (serotype 19F), 5% FBS): 0.125 µg/mL (≈ 0.358 µM)
MIC ([1]; Streptococcus pneumoniae, WCH184 (serotype 19F), 5% FBS): 0.125 µg/mL (≈ 0.358 µM)
MIC ([1]; Streptococcus pneumoniae, WCH211 (serotype 11), 5% FBS): 0.125 µg/mL (≈ 0.358 µM)
MIC ([1]; Streptococcus pneumoniae, WU2 (serotype 3), 5% FBS): 0.125 µg/mL (≈ 0.358 µM)
MIC [2]: 2 µg/mL
Time to clear all Xen29 ([3]; 4× MIC): 6 h
Regrowth after 24 h ([3]; at the concentrations tested (2× and 4× MIC)): some S. aureus regrowth was observed

Reference: publication PMC5584945, “Evaluation of robenidine analog NCL195 as a novel broad-spectrum antibacterial agent” (PLoS ONE, 2017)
